Data taken from patent US7056917B2, “Drug efflux pump inhibitor” (Daiichi Pharmaceutical Co., Ltd., priority 2001, dated 2006).

How the values were obtained:
[1] = test system: Pseudomonas aeruginosa PAM 1723 strain highly expressing the drug efflux pump; test: Effect of combined use with antimicrobial agent (levofloxacin, aztreonam) on multidrug resistant Pseudomonas aeruginosa; format: cell-based; conditions: 18 hours, MHB; for MPC8 AZT: minimum concentration of test compound required to enhance antibacterial activity of aztreonam at 1/8 or less of MIC; for MPC4 LVFX: minimum concentration of test compound required to enhance antibacterial activity of levofloxacin applied at 1/4 of MIC; for MPC8 LVFX: minimum concentration of test compound required to enhance antibacterial activity of levofloxacin applied at 1/8 or less of MIC
Source text: Effect of Combined Use with Antimicrobial Agent on Multidrug Resistant Pseudomonas aeruginosa
As multidrug resistant Pseudomonas aeruginosa, Pseudomonas aeruginosa PAM 1723 strain highly expressing the drug efflux pump was used. As antimicrobial drugs for the combinational uses, levofloxacin (LVFX) as a quinolone antibacterial agent and aztreonam (AZT) as a monobactam antibiotic were used. Each of the compounds shown in Table 1 with Example No., which falls within the compounds of the present invention, was subjected to the measurement of its minimum concentration (μg/ml) that was required to enhance the antibacterial activity of levofloxacin when the test compound was used in combination with levofloxacin applied at a concentration of 1/4, or 1/8 or less of the minimum inhibitory concentration against the PAM 1723 strain. […] Effects as combinational uses for 18 hours was indicated for each of the drugs. Effects were determined by visually observing the turbidity of the medium. The Müller-Hinton broth (MHB, Difco) was used as a medium, and the inoculum of the bacteria was 1×10^6 CFU/ml.

[2] = test system: Pseudomonas aeruginosa wild strain PAM 1020; test: Combined use of a pump inhibitor, levofloxacin (LVFX) and meropenem (MEPM) evaluated by the three-dimensional checker board method; format: cell-based; conditions: for MIC: Pseudomonas aeruginosa, agent used alone, PAM 1020 strain
Description: (1) Effect of Combined Used of a Pump Inhibitor, Levofloxacin (LVFX) and Meropenem (MEPM) Evaluated by the Three-Dimensional Checker Board Method
The effect was measured by the three-dimensional checker board method by using Pseudomonas aeruginosa wild strain PAM 1020. The test strain was inoculated into Mueller-Hinton broth containing LVFX, MEPM (at 11 concentration levels and 0 μg/ml) and the compound of Example 26 (40-0.625 μg/ml and 0 μg/ml) at a concentration of 10^6 CFU/ml and cultured at 37° C. for 18 hours. Then, MIC was measured for sole and combined use. Measurement was performed by the checker board method and FIC index was calculated according to the following equation. FIC index=a/a0+b/b0+c/c0 wherein a0: MIC for Agent A used alone, a: MIC for Agent A when Agents A, B and C are used in combination, b0: MIC for Agent B used alone, b: MIC for Agent B when Agents A, B and C are used in combination, c0: MIC for Agent C used alone, c: MIC for Agent C when Agents A, B and C are used in combination.
It was determined that there was synergistic effect when FIC index was 0.75 or less, additive effect or weak synergistic effect when the index was more than 0.75 but not more than 1.125, no effect of combined use when the index was more than 1.125 but not more than 3.0, and antagonistic effect when the index was more than 3.0.

`CC(C)c1csc(CCc2ccn3c(=O)c(/C=C4/SC(=O)NC4=O)c(N4CCOCC4)nc3c2)n1` [Example 141, 5-(1-{8-[2-(4-Isopropyl-1,3-thiazol-2-yl)ethyl]-2-morpholino-4-oxo-4H-pyrido[1,2-a]pyrimidin-3-yl}methylidene)-1,3-thiazolidine-2,4-dione] was tested, and the “MPC8 AZT” value [1] was 2 µg/mL, the “MPC4 LVFX” value [1] was 0.25 µg/mL and the “MPC8 LVFX” value [1] was 16 µg/mL.

In the case of `CC(C)c1csc(CCc2ccn3c(=O)c(/C=C/C(=O)[O-])c(N4CCN(C(=O)C[N+]56CCC(CC5)CC6)CC4)nc3c2)n1` [Example 94, (E)-3-{2-4-[2-(1-Azabicyclo[2.2.2]oct-1-yl)acetyl]piperazino-8-[2-(4-isopropyl-1,3-thiazol-2-yl)ethyl]-4-oxo-4H-pyrido[1,2-a]pyrimidin-3-yl}-2-propenoic acid], the “MPC8 AZT” value [1] is reported as 16 µg/mL, the “MPC4 LVFX” value [1] is reported as 4 µg/mL and the “MPC8 LVFX” value [1] is reported as 16 µg/mL.

In the case of `CC(C)(C)c1csc(NC(=O)c2ccn3c(=O)c(-c4nnn[nH]4)cnc3c2)n1` [Example 10, N8-[4-(tert-Butyl)-1,3-thiazol-2-yl]-4-oxo-3-(2H-1,2,3,4-tetrazol-5-yl)-4H-pyrido[1,2-a]pyrimidine-8-carboxamide], the “MPC8 AZT” value [1] is reported as 4 µg/mL, the “MPC4 LVFX” value [1] is reported as 2 µg/mL and the “MPC8 LVFX” value [1] is reported as 16 µg/mL.

In the case of `CC(C)(C)c1csc(NC(=O)c2ccn3c(=O)c(/C=C/C(=O)O)c(N4CCC[C@@H](OC(N)=O)C4)nc3c2)n1` [Example 18, (E)-3-[2-{(3R)-3-[(Aminocarbonyl)oxy]hexahydro-1-pyridinyl}-8-({[4-(tert-butyl)-1,3-thiazol-2-yl]amino}carbonyl)-4-oxo-4H-pyrido[1,2-a]pyrimidin-3-yl]-2-propenoic acid], the “MPC8 AZT” value [1] is reported as 0.5 µg/mL, the “MPC4 LVFX” value [1] is reported as “≦0.25 μg/ml” and the “MPC8 LVFX” value [1] is reported as 1 µg/mL.

`C[C@H]1COc2c(N3CCN(C)CC3)c(F)cc3c(=O)c(C(=O)O)cn1c23` [LVFX, levofloxacin] showed an FIC index ([2]; LVFX + MEPM 0.016 μg/ml, compound of Example 26 0 μg/ml, PAM 1020) of 1.031, an FIC index ([2]; LVFX + MEPM 0.0313 μg/ml, compound of Example 26 0 μg/ml, PAM 1020) of 1.0625 and an FIC index ([2]; LVFX + MEPM 0.0625 μg/ml, compound of Example 26 0 μg/ml, PAM 1020) of 1.125. It also gave an FIC index ([2]; LVFX + MEPM 0.125 μg/ml, compound of Example 26 0 μg/ml, PAM 1020) of 1.250, an FIC index ([2]; LVFX + MEPM 0.25 μg/ml, compound of Example 26 0 μg/ml, PAM 1020) of 1.5 and an LVFX conc. ([2]; LVFX conc. in combination with MEPM 0.016 μg/ml and compound of Example 26 0.625 μg/ml, PAM 1020) of 0.25 µg/mL. For the same compound, the LVFX conc. ([2]; LVFX conc. in combination with MEPM 0.016 μg/ml and compound of Example 26 1.25 μg/ml, PAM 1020) was 0.25 µg/mL, the LVFX conc. ([2]; LVFX conc. in combination with MEPM 0.016 μg/ml and compound of Example 26 2.5 μg/ml, PAM 1020) was 0.25 µg/mL and the LVFX conc. ([2]; LVFX conc. in combination with MEPM 0.016 μg/ml and compound of Example 26 5 μg/ml, PAM 1020) was 0.125 µg/mL. The LVFX conc. ([2]; LVFX conc. in combination with MEPM 0.016 μg/ml and compound of Example 26 10 μg/ml, PAM 1020) was 0.125 µg/mL, the LVFX conc. ([2]; LVFX conc. in combination with MEPM 0.016 μg/ml and compound of Example 26 20 μg/ml, PAM 1020) was 0.125 µg/mL and the LVFX conc. ([2]; LVFX conc. in combination with MEPM 0.016 μg/ml and compound of Example 26 40 μg/ml, PAM 1020) was 0.125 µg/mL. For the same compound, the LVFX conc. ([2]; LVFX conc. in combination with MEPM 0.016 μg/ml, compound of Example 26 0 μg/ml, PAM 1020) was 0.25 µg/mL, the LVFX conc. ([2]; LVFX conc. in combination with MEPM 0.0313 μg/ml and compound of Example 26 0.625 μg/ml, PAM 1020) was 0.25 µg/mL and the LVFX conc. ([2]; LVFX conc. in combination with MEPM 0.0313 μg/ml and compound of Example 26 1.25 μg/ml, PAM 1020) was 0.25 µg/mL. For the same compound, the LVFX conc. ([2]; LVFX conc. in combination with MEPM 0.0313 μg/ml and compound of Example 26 2.5 μg/ml, PAM 1020) was 0.125 µg/mL, the LVFX conc. ([2]; LVFX conc. in combination with MEPM 0.0313 μg/ml and compound of Example 26 5 μg/ml, PAM 1020) was 0.125 µg/mL and the LVFX conc. ([2]; LVFX conc. in combination with MEPM 0.0313 μg/ml and compound of Example 26 10 μg/ml, PAM 1020) was 0.125 µg/mL. It also gave an LVFX conc. ([2]; LVFX conc. in combination with MEPM 0.0313 μg/ml and compound of Example 26 20 μg/ml, PAM 1020) of 0.125 µg/mL, an LVFX conc. ([2]; LVFX conc. in combination with MEPM 0.0313 μg/ml and compound of Example 26 40 μg/ml, PAM 1020) of 0.125 µg/mL and an LVFX conc. ([2]; LVFX conc. in combination with MEPM 0.0313 μg/ml, compound of Example 26 0 μg/ml, PAM 1020) of 0.25 µg/mL. For the same compound, the LVFX conc. ([2]; LVFX conc. in combination with MEPM 0.0625 μg/ml and compound of Example 26 0.625 μg/ml, PAM 1020) was 0.25 µg/mL, the LVFX conc. ([2]; LVFX conc. in combination with MEPM 0.0625 μg/ml and compound of Example 26 1.25 μg/ml, PAM 1020) was 0.125 µg/mL and the LVFX conc. ([2]; LVFX conc. in combination with MEPM 0.0625 μg/ml and compound of Example 26 2.5 μg/ml, PAM 1020) was 0.125 µg/mL. It also gave an LVFX conc. ([2]; LVFX conc. in combination with MEPM 0.0625 μg/ml and compound of Example 26 5 μg/ml, PAM 1020) of 0.0625 µg/mL, an LVFX conc. ([2]; LVFX conc. in combination with MEPM 0.0625 μg/ml and compound of Example 26 10 μg/ml, PAM 1020) of 0.0625 µg/mL and an LVFX conc. ([2]; LVFX conc. in combination with MEPM 0.0625 μg/ml and compound of Example 26 20 μg/ml, PAM 1020) of 0.0313 µg/mL. The LVFX conc. ([2]; LVFX conc. in combination with MEPM 0.0625 μg/ml and compound of Example 26 40 μg/ml, PAM 1020) was 0.0313 µg/mL, the LVFX conc. ([2]; LVFX conc. in combination with MEPM 0.0625 μg/ml, compound of Example 26 0 μg/ml, PAM 1020) was 0.25 µg/mL and the LVFX conc. ([2]; LVFX conc. in combination with MEPM 0.125 μg/ml and compound of Example 26 0.625 μg/ml, PAM 1020) was 0.125 µg/mL. It also gave an LVFX conc. ([2]; LVFX conc. in combination with MEPM 0.125 μg/ml and compound of Example 26 1.25 μg/ml, PAM 1020) of 0.0625 µg/mL, an LVFX conc. ([2]; LVFX conc. in combination with MEPM 0.125 μg/ml and compound of Example 26 2.5 μg/ml, PAM 1020) of 0.0313 µg/mL and an LVFX conc. ([2]; LVFX conc. in combination with MEPM 0.125 μg/ml and compound of Example 26 5 μg/ml, PAM 1020) of 0.0156 µg/mL. The LVFX conc. ([2]; LVFX conc. in combination with MEPM 0.125 μg/ml and compound of Example 26 10 μg/ml, PAM 1020) was 0.0039 µg/mL, the LVFX conc. ([2]; LVFX conc. in combination with MEPM 0.125 μg/ml, compound of Example 26 0 μg/ml, PAM 1020) was 0.25 µg/mL and the LVFX conc. ([2]; LVFX conc. in combination with MEPM 0.25 μg/ml and compound of Example 26 0.625 μg/ml, PAM 1020) was 0.0078 µg/mL. The LVFX conc. ([2]; LVFX conc. in combination with MEPM 0.25 μg/ml, compound of Example 26 0 μg/ml, PAM 1020) was 2 µg/mL and the MIC [2] was 0.25 µg/mL.

For `CC(C)c1csc(CCc2ccn3c(=O)c(/C=C(\F)C(=O)O)c(N4CCOCC4)nc3c2)n1` [Example 135, (Z)-2-Fluoro-3-{8-[2-(4-isopropyl-1,3-thiazol-2-yl)ethyl]-2-morpholino-4-oxo-4H-pyrido[1,2-a]pyrimidin-3-yl}-2-propenoic acid], the “MPC8 AZT” value [1] was 8 µg/mL, the “MPC4 LVFX” value [1] was 4 µg/mL and the “MPC8 LVFX” value [1] was 16 µg/mL.

In the case of `CC(C)c1csc(CCc2ccn3c(=O)c(/C=C/C(=O)O)c(-c4ccncc4)nc3c2)n1` [Example 130], the “MPC8 AZT” value [1] is reported as 8 µg/mL, the “MPC4 LVFX” value [1] is reported as 2 µg/mL and the “MPC8 LVFX” value [1] is reported as 8 µg/mL.

In the case of `CC(C)c1csc(CCc2ccn3c(=O)c(/C=C/C(=O)NS(C)(=O)=O)c(N4CCOCC4)nc3c2)n1` [Example 98, N-((E)-3-{8-[2-(4-Isopropyl-1,3-thiazol-2-yl)ethyl]-2-morpholino-4-oxo-4H -pyrido[1,2-a]pyrimidin-3-yl}-2-propenoyl)methanesulfonamide], the “MPC8 AZT” value [1] is reported as 4 µg/mL, the “MPC4 LVFX” value [1] is reported as 1 µg/mL and the “MPC8 LVFX” value [1] is reported as 4 µg/mL.

For `C[C@@H](O)[C@H]1C(=O)N2C(C(=O)O)=C(S[C@@H]3CN[C@H](C(=O)N(C)C)C3)[C@H](C)[C@H]12` [MEPM, Meropenem], the “effect of combined use of three types of drugs” value ([2]; LVFX, MEPM and compound of Example 26 0.625-40 μg/ml, PAM 1020) was “apparent effects of the addition of MEPM were observed”, the MIC [2] was 0.5 µg/mL and the “effect of MEPM on the combined use of two types of drugs, LVFX and the compound of Example 26” value ([2]; compound of Example 26 0.625-40 μg/ml, PAM 1020) was “effects of the addition of MEPM were clearly observed”.
